Data taken from article PMC10436260, “Thiazolide Prodrug Esters and Derived Peptides: Synthesis and Activity” (ACS Bio & Med Chem Au, 2023).
In brackets after ≈: the same amount, converted by molar mass. Entries after “also recorded” stand apart in the source; their conditions may differ. Where two headings read alike, the source gives them in different places.

Legend:
[1] = clearance in rat hepatocytes (RH); type: in vitro ADME
Description: Table 1 Summarized DMPK and Antiviral Data for Thiazolides and Derived Peptides | column: clearance RH μL/min/10^6 cells

in vitro = in vitro ADME; conditions: human, microsomes
Description: Table 1 Summarized DMPK and Antiviral Data for Thiazolides and Derived Peptides | column: clearance HLM μL/min/mg

[2] = tested on: influenza A virus (IAV) strain A/PuertoRico/8/1934(H1N1) (PR8); experiment: microbe, parasite or virus in culture; type: cell-based
[3] = cell viability by MTT assay in mock-infected cells; type: cell-based, canine; conditions: dog; mock-infected MDCK cells, MTT, 24 h; read-out: CC50 (50% cytotoxic concentration)
Experimental: (§1) Madin–Darby canine kidney (MDCK) cells (American Type Culture Collection, ATCC) were grown at 37 °C in a 5% CO2 atmosphere in an RPMI-1640 medium (LONZA-CAMBREX, Basel, Switzerland), supplemented with 10% fetal calf serum (FCS), 2 mM glutamine, and antibiotics. Tizoxanide (Romark Laboratories, L.C.) and derived peptides, dissolved in a dimethyl sulfoxide (DMSO) stock solution, were diluted in culture medium, added to infected cells after a one-hour virus adsorption period, and maintained in the medium for the duration of the experiment.
(§2) Cell viability was determined by the 3-(4,5-dimethylthiazol-2-yl)-2,5-diphenyltetrazolium bromide (MTT) to MTT formazan conversion assay (Sigma-Aldrich), as described.[28],[29] The 50% cytotoxic dose (CC50) was calculated using Prism 5.0 software (Graph-Pad Software Inc.).[28]
(§3) Confluent cell monolayers were mock-infected or infected with PR8 virus for 1 h at 37 °C at a multiplicity of infection (MOI) of 5 HAU (hemagglutinating units)/10^5 cells, as described.[30],[31] After the adsorption period, the viral inoculum was removed and cells were treated with different concentrations (0.1, 1, 5, 10, and 50 μg/mL) of each compound or vehicle and maintained at 37 °C in an RPMI-1640 medium containing 2% FCS for 24 h; in parallel, cell viability was determined in mock-infected cells by the MTT assay, as described above. Virus yield was determined 24 h post infection (p.i.) by HA titration, as described.[31] Compounds’ IC50 (50% inhibitory concentration) and IC90 (90% inhibitory concentration) were calculated using Prism 5.0 software.

[4] = tested on: Madin–Darby canine kidney (MDCK) cells; experiment: cell viability by MTT assay in mock-infected cells; type: cell-based; conditions: antiviral assay conditions, MDCK cells
Experimental: as §1, §2, §3

physchem [5] = conditions: pH 7.4
[6] = type: physicochemical; conditions: for stability of solutions: pH 5
Description: We studied the aqueous stability further by NMR, Figures 1 and 2. […] In the case of valacyclovir, which we originally used as a model for 5a and 6, it was known that some hydrolysis occurred in vivo.[17] Clearly, at the 18 day time point [Figure 2g], the rearrangement and hydrolysis products accounted for ∼50% of the total analyte. In Figure 3, the aryl region is integrated and compared with the spectra of 5a, 3, and 8 (see below).
Figure 2 Time-course ^1H NMR spectra of the aromatic region of 5a in d6-DMSO + 10%D2O. Evolution with time over an 18 day period at 298–313 K. The sample was held in an isothermal bath at a specified temperature between measurements. Spectra were recorded at the temperature stated in each case. (a) t = zero, 298 K; (b) t = 1 week, 308 K; (c) t = 8 days, 308 K; (d) t = 9 days, 308 K; (e) t = 11 days, 313 K; (f) t = 14 days, 313 K; (g) t = 18 days, 313 K.
Figure 3 Assignment and integration of the final time-point spectrum.

[7] = rat, in vivo, po; cited from earlier work
physchem [8] = type: physicochemical
Description: Table 1 Summarized DMPK and Antiviral Data for Thiazolides and Derived Peptides | column: log P

[9] = Influenza A virus, MDCK, 24 h; read-out: IC50 (50% inhibitory concentration)
[10] = Influenza A virus, MDCK, 24 h; read-out: IC90 (90% inhibitory concentration)
[11] = CC50 (MDCK) / IC50 (influenza A)

Structure (SMILES) | hepatocyte CLint [1] [µL/min/1e6 cells] | microsomal CLint (in vitro) [µL/min/mg] | IC50 [2, 9] [µM] | IC90 [2, 10] [µM] | antiviral activity in words ([2]; influenza A virus assay) | CC50 at 24 h [3] [µM] | solubility (physchem [5]) [µM] | logP (physchem [8]) | SI, selectivity index, CC50/IC50 [2, 11] | also measured
CC(C)[C@H](NC(=O)c1ccccc1O)C(=O)Nc1ncc(Cl)s1 [compound 22, (S)-2-Hydroxy-N-(3-methyl-1-((5-chlorothiazol-2-yl)amino)-1-oxobutan-2-yl)benzamide] | 234 | 42.7 | > 42.4 | > 42.4 | essentially inactive; also recorded: virtually inactive | 42.4 | 82 (≈ 29 µg/mL) | – | – | toxicity under the assay conditions in words [4]: appeared toxic
CC(C)(C)[C@H](N)C(=O)Oc1ccccc1C(=O)Nc1ncc(Cl)s1 [compound 6] | – | – | – | – | – | – | – | – | – | stability on storage [6]: stable for months; absolute bioavailability [7]: 20–25%
CC(C)(C)[C@H](N)C(=O)Oc1ccccc1C(=O)Nc1ncc([N+](=O)[O-])s1.Cc1ccc(S(=O)(=O)O)cc1 [5b, (S)-3,3-Dimethyl-1-(2-((5-nitrothiazol-2-yl)carbamoyl)phenoxy)-1-oxobutan-2-aminium 4-methylbenzenesulfonate] | – | – | – | – | – | – | – | – | – | stability of solutions [6]: unstable
CC(C)(C)[C@H](N)C(=O)Oc1ccccc1C(=O)Nc1ncc([N+](=O)[O-])s1 [5a] | – | – | – | – | activity is equivalent to 3 | – | – | – | – | stability on storage [6]: stable for months; rearrangement and hydrolysis products as share of total analyte / loss of 5a ([6]; d6-DMSO + 10% D2O, 298–313 K, 18 day time point, 1H NMR integration): ~50%; absolute bioavailability [7]: 20–25%
CC(C)(C)[C@H](NC(=O)c1ccccc1O)C(=O)Nc1ncc([N+](=O)[O-])s1 [compound 8, (S)-N-(3,3-Dimethyl-1-((5-nitrothiazol-2-yl)amino)-1-oxobutan-2-yl)-2-hydroxybenzamide] | 31.5 | 36.5 | 1.6 | 79 | retains good activity | > 132 | 18 (≈ 6.81 µg/mL) | 3.3 | >83 | –
CC(C)(C)[C@H](NC(=O)c1ccccc1O)C(=O)Nc1ncc(Cl)s1 [compound 20, (S)-N-(3,3-Dimethyl-1-((5-chlorothiazol-2-yl)amino)-1-oxobutan-2-yl)-2-hydroxybenzamide] | 75.4 | 42.4 | > 40.8 | > 40.8 | essentially inactive; also recorded: virtually inactive | 40.8 | 388 (≈ 143 µg/mL) | > 3.5 | – | toxicity under the assay conditions in words [4]: appeared toxic
O=C(Nc1ncc([N+](=O)[O-])s1)c1ccccc1O [compound 3, Tizoxanide, reference compound] | 244 | 50.2 | 2.3 | 26.4 | – | > 189 | 33 (≈ 8.75 µg/mL) | 1.8 | >82 | –
O=C(Nc1ncc(Cl)s1)c1ccccc1O [compound 4, reference compound] | > 300 | 37.5 | – | – | – | > 196 | 48 (≈ 12.2 µg/mL) | 2.9 | – | SI, selectivity index, CC50/IC50 [2]: >50; IC50 ([2]; Influenza A virus, MDCK, 24 h, read-out: IC50 (50% inhibitory concentration)): 3.9 µM; IC90 ([2]; Influenza A virus, MDCK, 24 h, read-out: IC90 (90% inhibitory concentration)): 19.6 µM
CC(C)[C@H](NC(=O)c1ccccc1O)C(=O)Nc1ncc([N+](=O)[O-])s1 [compound 21, (S)-2-Hydroxy-N-(3-methyl-1-((5-nitrothiazol-2-yl)amino)-1-oxobutan-2-yl)benzamide] | 67.7 | 55.9 | 13.7 | > 137 | considerably less active | > 137 | > 1000 | 2.9 | >10 | –
CC(C)(C)[C@H](N)C(=O)Oc1ccccc1C(=O)Nc1ncc([N+](=O)[O-])s1.CS(=O)(=O)O [5c, (S)-3,3-Dimethyl-1-(2-((5-nitrothiazol-2-yl)carbamoyl)phenoxy)-1-oxobutan-2-aminium Methanesulfonate] | – | – | – | – | – | – | – | – | – | stability of solutions [6]: unstable
